According to article PMC10730845, “Endoxifen downregulates AKT phosphorylation through protein kinase C beta 1 inhibition in ERα+ breast cancer” (NPJ Breast Cancer, 2023):
“And” between values parts separate entries of the source, which are not always exact repeats. Identical values can stand only once. Like-named read-outs stand apart in the source and are kept apart here.

Columns and labels:
[1] = system: BT549 cells; test: Crystal violet growth assay, BT549; format: cell-based, human; conditions: day seven
Text: (§1) Supplementary Figure 8. […]
(§2) ANOVA. b, Effects of ENDX on cell proliferation at the indicated concentrations on day seven of
(§3) treatment. […]

[2] = system: MCF7AC1^caAKT cells; test: IncuCyte Annexin V apoptosis assay, MCF7AC1^caAKT; format: cell-based, human; conditions: CSS medium, 5 µM, 48 h
Description: (§4) MCF7AC1 and T47D-LTED cells were plated at a density of 2000 cells per well in CSS medium for 24 h. Cells were then co-treated for 48 h with vehicle or drug, IncuCyte Annexin V green reagent (#4642, 1:300), an early-stage apoptosis marker, and IncuCyte NucLight rapid red reagent (#4717, 1:500), a dye that stains all cell nuclei red, in CSS medium. MCF7AC1^caAKT cells were plated at a cell density of 2000 cells per well in CSS medium in the absence or presence of cumate for 48 h and then co-treated with vehicle or drug, Annexin V green and NucLight rapid red reagents in the absence or presence of cumate for an additional 48 h in CSS medium.
Molecular cloning was performed for the generation of catalytically active AKT-expressing MCF7AC1 cells. For this purpose, vector pCDNA3.1+ containing an N-terminal SRCMyr signal AKT ORF and C-terminal hemagglutinin (HA)-tag was provided as a kind gift from Dr. Haojie Huang, Ph.D, Mayo Clinic, Rochester, MN. The constitutively active AKT (caAKT)-HA insert was excised using NheI/EcoRV restriction digest, gel purified and cloned into the NheI//PmeI site of an SBI (System biosciences, Palo Alto, CA) vector with modified restriction sites. Sanger sequencing was performed by Azenta/Genewiz, (South Plainfield, NJ) to confirm in frame sequence. […]

[3] = target: PKCβ1 (Homo sapiens, UniProt P05771); test: In vitro kinase assay, PKCβ1 kinase activity; format: biochemical; conditions: 10 μM ATP, three-fold serial dilution from 50 μM, Fig. 6d
[4] = system: MCF7AC1 cells; test: IncuCyte Annexin V apoptosis assay, MCF7AC1; format: cell-based, human; conditions: CSS medium, 48 h
Description: as §4

[5] = target: PKC iota (PKCi) (Homo sapiens, UniProt P41743); test: In vitro kinase assay, PKC iota; format: biochemical; conditions: 10 μM ATP
Text: (§5) Supplementary Table 4. In vitro kinase assay showing the IC 50 concentration of ENDX and
(§6) of the 12 PKC family members.
(§7) (1 picture or pasted object on this page, not shown here)

[6] = target: PKC mu (PKCm/PRKD1) (Homo sapiens, UniProt Q15139); test: In vitro kinase assay, PKC mu; format: biochemical; conditions: 10 μM ATP
Text: as §5, §6, §7

[7] = cited from earlier work
[8] = target: PKC zeta (PKCz) (Homo sapiens, UniProt Q05513); test: In vitro kinase assay, PKC zeta; format: biochemical; conditions: 10 μM ATP
Text: as §5, §6, §7

[9] = system: PKCβ1 and AKT^Ser473 phosphorylation in MDAMB231 cells; test: Immunoblot of PKCβ1 and pAKT^Ser473, MDAMB231; format: cell-based, human; conditions: 5 µM, 2 h pretreatment, 100 nM insulin 1 h
Text: To determine whether the observed effects of ENDX on PKCβ1 degradation and AKT^Ser473 phosphorylation inhibition are dependent on the presence of ERα, we additionally evaluated ENDX effects on PKCβ1 degradation and AKT^Ser473 phosphorylation in the ER negative (ER-) MDAMB231 breast cancer cells and nonbreast HEK293F cells, a human embryonic kidney cell line, both of which express higher amounts of PKCβ1 compared to ERα+ MCF7AC1 cells (Supplementary Fig. 5a). […] To determine whether the addition of ERα to the MDAMB231 cell line could facilitate ENDX effects on PKCβ1, we performed doxycycline (dox)-induced ERα protein expression in MDAMB231 cells and evaluated ENDX effects on PKCβ1 using the above-mentioned experimental conditions. […] Additionally, we pretreated MDAMB231 and HEK293F cells with or without 5 µM ENDX for 1 h followed by 0 or 200 nM PMA treatment for 20 min and evaluated effects on PKCβ1.
Supplementary Figure 5. Effects of ENDX on PKCβ1, phospho -PKCB1Ser661 and phospho-AKTSer473 expression levels in ERα- breast cancer cells. a, Basal expression of PKCβ1 and ERα in the indicated cell lines. […]

[10] = target: PKC alpha (PKCa) (Homo sapiens, UniProt P17252); test: In vitro kinase assay, PKC alpha; format: biochemical; conditions: 10 μM ATP
Text: as §5, §6, §7

[11] = phase I, cited from earlier work; for Cmax: read-out: Peak serum concentration (Cmax)
[12] = system: ERα+/HER2- metastatic breast cancer; conditions: cited from earlier work
[13] = system: MDAMB231 cells; test: Crystal violet growth assay, MDAMB231; format: cell-based, human; conditions: 0–10 µM tested, day seven
Text: as §1, §2, §3

Chain of PKCβ1 (P05771 whole entry): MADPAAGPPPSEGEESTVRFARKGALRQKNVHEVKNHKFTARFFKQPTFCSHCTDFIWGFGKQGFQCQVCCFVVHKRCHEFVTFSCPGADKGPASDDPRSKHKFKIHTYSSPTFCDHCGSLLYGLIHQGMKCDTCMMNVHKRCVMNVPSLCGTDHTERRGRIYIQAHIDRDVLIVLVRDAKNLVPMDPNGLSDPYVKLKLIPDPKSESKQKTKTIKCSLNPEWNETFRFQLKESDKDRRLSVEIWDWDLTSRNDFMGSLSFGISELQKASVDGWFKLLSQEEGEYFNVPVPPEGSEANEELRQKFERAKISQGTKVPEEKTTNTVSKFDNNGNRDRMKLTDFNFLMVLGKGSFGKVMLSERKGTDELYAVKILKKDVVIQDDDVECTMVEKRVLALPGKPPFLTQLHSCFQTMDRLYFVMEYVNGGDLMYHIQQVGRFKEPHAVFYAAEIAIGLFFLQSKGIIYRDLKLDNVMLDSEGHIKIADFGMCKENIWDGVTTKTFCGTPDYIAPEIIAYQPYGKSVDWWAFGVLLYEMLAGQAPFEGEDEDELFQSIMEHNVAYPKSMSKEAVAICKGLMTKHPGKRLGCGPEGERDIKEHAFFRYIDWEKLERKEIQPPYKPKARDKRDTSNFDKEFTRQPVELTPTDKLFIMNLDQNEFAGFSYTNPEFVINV
Chain of PKC zeta (PKCz) (Q05513 whole entry): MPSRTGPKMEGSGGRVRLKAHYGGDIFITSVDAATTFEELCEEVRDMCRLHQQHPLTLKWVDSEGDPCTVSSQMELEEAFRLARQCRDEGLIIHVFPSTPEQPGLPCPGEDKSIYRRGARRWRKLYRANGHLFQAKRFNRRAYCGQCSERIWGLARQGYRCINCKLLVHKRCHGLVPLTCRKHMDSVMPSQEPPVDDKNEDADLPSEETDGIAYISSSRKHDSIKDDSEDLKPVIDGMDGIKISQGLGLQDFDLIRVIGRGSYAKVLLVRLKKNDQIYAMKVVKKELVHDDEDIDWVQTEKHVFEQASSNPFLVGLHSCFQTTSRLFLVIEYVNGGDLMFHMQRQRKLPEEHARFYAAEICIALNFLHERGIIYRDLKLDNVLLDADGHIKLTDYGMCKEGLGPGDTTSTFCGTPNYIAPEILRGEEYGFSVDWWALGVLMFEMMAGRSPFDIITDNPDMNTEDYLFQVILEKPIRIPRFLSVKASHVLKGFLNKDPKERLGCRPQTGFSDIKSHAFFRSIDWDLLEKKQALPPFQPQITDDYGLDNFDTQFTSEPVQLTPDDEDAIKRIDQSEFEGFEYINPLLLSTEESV
Chain of PKC mu (PKCm/PRKD1) (Q15139 whole entry): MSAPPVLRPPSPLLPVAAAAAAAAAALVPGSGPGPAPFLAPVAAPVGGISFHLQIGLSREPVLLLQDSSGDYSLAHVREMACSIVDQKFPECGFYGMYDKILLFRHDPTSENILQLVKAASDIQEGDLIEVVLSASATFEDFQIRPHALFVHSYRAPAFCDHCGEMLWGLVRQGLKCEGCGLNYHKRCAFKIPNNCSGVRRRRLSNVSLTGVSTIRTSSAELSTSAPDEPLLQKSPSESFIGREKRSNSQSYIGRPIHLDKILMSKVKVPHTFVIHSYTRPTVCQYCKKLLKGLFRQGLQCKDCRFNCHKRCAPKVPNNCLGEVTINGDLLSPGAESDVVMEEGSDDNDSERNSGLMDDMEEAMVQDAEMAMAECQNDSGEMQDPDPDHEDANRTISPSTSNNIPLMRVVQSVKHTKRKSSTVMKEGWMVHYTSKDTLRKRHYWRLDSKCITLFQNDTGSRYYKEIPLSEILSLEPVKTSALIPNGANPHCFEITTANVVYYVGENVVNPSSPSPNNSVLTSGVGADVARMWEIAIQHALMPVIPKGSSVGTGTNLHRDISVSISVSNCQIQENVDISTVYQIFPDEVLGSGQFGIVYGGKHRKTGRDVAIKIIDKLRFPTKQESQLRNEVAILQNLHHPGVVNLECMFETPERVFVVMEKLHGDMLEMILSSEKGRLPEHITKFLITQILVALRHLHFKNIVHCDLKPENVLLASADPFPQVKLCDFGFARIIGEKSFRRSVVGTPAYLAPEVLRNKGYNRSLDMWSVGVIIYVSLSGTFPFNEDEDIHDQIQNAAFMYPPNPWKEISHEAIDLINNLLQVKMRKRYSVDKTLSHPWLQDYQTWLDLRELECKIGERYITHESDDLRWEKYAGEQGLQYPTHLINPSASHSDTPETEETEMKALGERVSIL
Chain of PKC iota (PKCi) (P41743 whole entry): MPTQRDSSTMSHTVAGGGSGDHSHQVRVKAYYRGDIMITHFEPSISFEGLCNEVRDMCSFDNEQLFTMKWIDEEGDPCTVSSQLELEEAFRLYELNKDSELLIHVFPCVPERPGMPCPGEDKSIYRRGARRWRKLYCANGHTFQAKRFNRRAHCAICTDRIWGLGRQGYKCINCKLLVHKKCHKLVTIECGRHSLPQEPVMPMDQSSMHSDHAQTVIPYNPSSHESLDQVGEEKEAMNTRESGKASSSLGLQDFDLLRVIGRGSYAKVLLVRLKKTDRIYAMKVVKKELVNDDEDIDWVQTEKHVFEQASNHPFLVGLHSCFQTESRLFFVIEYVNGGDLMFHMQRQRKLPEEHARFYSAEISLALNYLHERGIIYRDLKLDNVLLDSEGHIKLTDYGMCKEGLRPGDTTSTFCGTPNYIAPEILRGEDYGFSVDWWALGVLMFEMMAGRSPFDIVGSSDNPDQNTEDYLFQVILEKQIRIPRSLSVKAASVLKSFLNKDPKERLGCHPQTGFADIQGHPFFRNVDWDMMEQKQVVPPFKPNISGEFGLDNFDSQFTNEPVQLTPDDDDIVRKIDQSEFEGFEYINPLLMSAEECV

Compound: CC/C(=C(\c1ccc(O)cc1)c1ccc(OCCNC)cc1)c1ccccc1 [ENDX, Z-endoxifen]
- Concentrations at which growth was inhibited [1]: > 7.5 µM
- Effect on apoptosis ([2]; absence of cumate): induced apoptosis
- Effect of caAKT expression on ENDX-induced apoptosis ([2]; presence of cumate): significantly diminished the ability of ENDX to induce apoptosis
- IC50 [3]: 0.357 µM and 0.36 µM
- Concentrations that induced apoptosis ([4]; 0 to 10 µM tested): ≥ 2.5 µM
- Effect on apoptosis ([4]; ENDX 5 µM, TAM 0.1 µM, ICI 0.1 µM): induced apoptosis
- IC50 [5]: > 50 µM
- IC50 [6]: 31.6 µM
- Effect on uterine weight and epithelial cell height ([7]; intact rats): substantially lowered uterine weight and increased epithelial cell height
- Uterotrophic potency ([7]; ovariectomized Sprague-Dawley rats): less potent than estradiol in eliciting uterotrophic effects
- IC50 [8]: 48.1 µM
- Effect on PKCβ1 protein levels [9]: did not impact PKCβ1 protein levels
- Effect on insulin induced AKT^Ser473 phosphorylation [9]: did not inhibit this phosphorylation
- IC50 [10]: > 50 µM
- Peak serum concentration (Cmax) ([11]; Day 28, 80 mg/day): 913 ± 142 ng/mL
- Cmax ([11]; Day 28, 80 mg/day): 2.44 ± 0.38 µM
- Peak serum concentration (Cmax) ([11]; Day 28, 200 mg/day): 1641 ± 830 ng/mL
- Cmax ([11]; Day 28, 200 mg/day): 4.39 ± 2.22 µM
- PFS hazard ratio (HR) ENDX vs TAM, CDK4/6i naïve patients ([12]; 95% CI 0.22–0.80): 0.42
- PFS hazard ratio (HR) ENDX vs TAM, overall ([12]; 95% CI 0.49–1.22): 0.77
- PFS in CDK4/6 inhibitor naïve patients ([12]; CDK4/6i naïve): 7.2 m
- Progression free survival (PFS) overall ([12]; women with ERα+/HER2- metastatic breast cancer progressed on endocrine therapy): 4.3 m
- Concentrations at which growth was inhibited [13]: ≥ 7.5 µM
